The record followed here is patent US20250295799A1, “ANTIBODY-DRUG CONJUGATES TARGETING GLYPICAN-3 AND METHODS OF USE” (Zymeworks BC Inc., priority 2022, published 2025).

For this assay, the system named is JHH-7 cells (high GPC3-expressing). In words: Internalization by flow cytometry (quenched AF488). The class given is cell-based. The note with it: JHH-7; 5 nM; 24 h. The procedure:
(§1) Cells were seeded at 50,000 cells/well in 48-well plates and incubated overnight under standard culturing conditions (37° C./5% CO2) in Gibco™ Dulbecco's Modified Eagle Media (DMEM) (Thermo Fisher Scientific, Waltham, MA; Cat. No. 11995040) with 10% Fetal Bovine Serum (FBS) (Thermo Fisher Scientific, Waltham, MA; Cat. No. 12483020) for Hep G2 cells, and Gibco™ William's E Medium, GlutaMAX™ Supplement (Thermo Fisher Scientific, Waltham, MA; Cat. No. 32551020) with 10% FBS (Thermo Fisher Scientific, Waltham, MA; Cat. No. 12483020) for JHH-7 cells. Coupled antibodies were added to cells the following day at 10 nM or at 100 nM and incubated under standard culturing conditions for 5-24 hours to allow for internalization. Following incubation, cells were dissociated, washed, and surface AF488 fluorescence was quenched using an anti-AF488 antibody (Life Technologies, Carlsbad, CA; Cat. No. A-11094) at 100 nM for 30 minutes at 4° C. Quenched AF488 fluorescence (internalized fluorescence) was detected by flow cytometry on a BD LSRFortessa™ Cell Analyzer (BD Biosciences, Franklin Lake, NJ) with 1,000 minimum events collected per well.
as §1, with “CO2)” for “CO2) in Gibco™ Dulbecco's Modified Eagle Media (DMEM) (Thermo Fisher Scientific, Waltham, MA; Cat. No. 11995040) with 10% Fetal Bovine Serum (FBS) (Thermo Fisher Scientific, Waltham, MA; Cat. No. 12483020) for Hep G2 cells, and”, “12483020).” for “12483020) for JHH-7 cells.”, “5” for “10 nM or at 100”, “24” for “5-24”, “well. […]” for “well.”

For palivizumab, the “internalization, in words” value was “minimal internalization”.
